{"source": "paper PMC4630399", "about": "“Charge-Based Inhibitors of Amylin Fibrillization and Toxicity” (Journal of Diabetes Research, 2015)", "key": {"[1]": {"experiment": "TEM of aggregates formed by peptides alone", "format": "physicochemical", "settings": "80 μM peptide, 2 days, 20 mM phosphate pH 7.4, 37°C, no agitation", "procedure": "(§1) Samples containing 80 μM concentrations of WT-amylin and the three analogs were incubated without agitation at a temperature of 37°C in 20 mM phosphate buffer (pH 7.4). For the inhibition reactions, samples contained WT-amylin at an 80 μM concentration, together with 160 μM of Arg-1, Arg-2, or Mem-T analogs. Aliquots from the reactions were removed after 2 days for TEM imaging. The aliquots were blotted onto carbon-coated 400-mesh Maxtaform copper grids (Ted Pella Inc. Redding, CA) for 1–3 min, followed by negative staining with 1% uranyl acetate. TEM images were recorded on an FEI Tecnai G^2 Spirit BioTwin transmission electron microscope equipped with an AMT XR-40 camera."}, "WT-amylin [2]": {"target": "T1, WT-amylin (Homo sapiens, UniProt P10997)", "T1 sequence (P10997 34-70 limits assumed)": "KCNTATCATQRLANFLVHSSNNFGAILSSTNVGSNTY", "experiment": "TEM of WT-amylin fibrils formed in presence of inhibitor peptides", "format": "biochemical", "parameters": "purchased Biopeptide (San Diego, CA); host or cells: solid-phase synthesis", "settings": "80 μM WT-amylin with 160 μM analog, 20 mM sodium phosphate pH 7.4, 1% DMSO, 37°C, 24 h", "procedure": "as §1\nFigure 8 TEM images of fibrils formed from 80 μM WT amylin in the presence or absence of inhibitor peptides. (a) WT amylin alone, (b) with 160 μM Arg-1, (c) with 160 μM Arg-2, and (d) with 160 μM Mem-T. Aliquots were removed for TEM imaging 24 h after the fibrillization reactions were started. Reactions were carried out in 20 mM sodium phosphate (pH 7.4), 1% DMSO (v/v), at 37°C."}, "[3]": {"experiment": "ThT assay of fibrillization kinetics, peptides alone", "format": "physicochemical", "procedure": "(§2) The time course of fibrillization in solution was monitored using 100–200 μL amylin samples, contained in white polystyrene clear bottom 96-well plates (Corning Inc., Corning, NY). Plates were covered with a clear polyester sealing tape (Fisher Scientific, Agawam, MA) to prevent evaporation. Stock solutions of 1.1 mM WT-amylin and inhibitor peptides were prepared in 100% DMSO, which dissolves and disaggregates amylin fibrils, and were stored at −80°C when not in use. Starting from the 1.1 mM stock solutions in 100% DMSO, samples for fibrillization reactions were prepared to contain 20 μM amylin and 10 μM ultrapure ThT, in 20 mM sodium phosphate buffer, pH 7.4, and a final DMSO concentration of 2% (v/v). For experiments using larger 400 μM concentrations of Arg-2 and Mem-T, the solutions were prepared by diluting 100% DMSO stock solutions of 20 mM peptide to a final DMSO concentration of 2% (v/v). Amylin was the last component added to the samples for the kinetic reactions, in order to reduce the dead time for the experiments. The plates were incubated at 25°C without agitation. Fluorescence intensity was recorded at 2 min intervals with excitation at 440 nm and emission at 490 nm on a Fluoroskan Ascent 2.5 fluorescence plate reader. Fibrillization reactions for the peptides alone were performed in triplicate and for analog-peptide inhibition of WT-amylin in duplicate, to estimate experimental uncertainties in kinetic parameters."}, "WT-amylin [4]": {"target": "T1, WT-amylin", "experiment": "ThT assay, inhibition of WT-amylin fibrillization by analogs added in trans", "format": "biochemical", "parameters": "purchased Biopeptide (San Diego, CA); host or cells: solid-phase synthesis", "settings": "for reduction of WT-amylin fibril elongation rate: analog 0.001 to 120 μM; for reduction of WT-amylin elongation rate: Arg-1 between 0 and 200 μM", "procedure": "as §2, with “Starting from the 1.1 mM stock solutions in 100% DMSO, samples for fibrillization reactions were prepared to contain 20 μM amylin and 10 μM ultrapure ThT, in 20 mM sodium phosphate buffer, pH 7.4, and a final DMSO concentration of 2% (v/v).” left out"}, "[5]": {"test_system": "WT-amylin cytotoxicity towards MIN6 mouse model of pancreatic β-cells", "experiment": "Protection of MIN6 cells against WT-amylin cytotoxicity (Alamar Blue)", "procedure": "The stock solutions were diluted with FBS-free DMEM and sonicated continuously for 5 min at 75% amplitude before use. FBS was subsequently added to a concentration of 15% (v/v), giving final amylin concentrations of 40, 80, and 160 μM. The final DMSO concentration for all cytotoxicity experiments was 1% (v/v).\nCytotoxicity was measured using the mouse insulinoma 6 (MIN6) cell line model of β-pancreatic cells, which were a gift from Dr. Anil Rustgi (University of Pennsylvania). Cells were seeded at a density of 20,000 per 100 μL in black clear-bottom 96-well plates. The cells were grown in DMEM with 15% FBS, 25 mM glucose, 2 mM L-glutamine, […] sodium pyruvate, 55 μM β-mercaptoethanol, 1000 units/mL penicillin, and 100 μg/mL streptomycin, for 20 h at 37°C in a humidified incubator with 5% CO2. […] The cells were incubated for another 24 h followed by the addition of 10% (v/v) of the redox indicator dye Alamar Blue at the concentration supplied by the manufacturer (Invitrogen). Fluorescence, due to the reduction of Alamar Blue by viable cells, was measured after 6 h, using excitation and emission wavelengths of 544 and 590 nm, respectively. Cell viability was calculated from the ratio of Alamar Blue fluorescence in treated to untreated cells. Uncertainties were calculated as the SEMs of triplicate measurements."}, "[6]": {"settings": "20 μM peptide, 150 mM NaCl, pH 7.4, 25°C"}}, "note": "pIC50: −log10 of the molar value. “Also recorded” adds a separate entry of the source. Positions of bridges follow the written chain, without caps; N, C: chain ends. Residues, ends and D or L forms follow the SMILES beside them."}
{"compound": "CC[C@H](C)[C@H](NC(=O)[C@H](C)NC(=O)CNC(=O)[C@H](Cc1ccccc1)NC(=O)[C@H](CC(N)=O)NC(=O)[C@H](CC(N)=O)NC(=O)[C@H](CO)NC(=O)[C@H](CO)NC(=O)[C@H](Cc1c[nH]cn1)NC(=O)[C@H](CCCNC(=N)N)NC(=O)[C@H](CCCNC(=N)N)NC(=O)[C@H](CCCNC(=N)N)NC(=O)[C@H](CCCNC(=N)N)NC(=O)[C@H](C)NC(=O)[C@H](CC(C)C)NC(=O)[C@H](CCCNC(=N)N)NC(=O)[C@H](CCC(N)=O)NC(=O)[C@@H](NC(=O)[C@H](C)NC(=O)[C@@H]1CSSC[C@H](NC(=O)[C@@H](N)CCCCN)C(=O)N[C@@H](CC(N)=O)C(=O)N[C@@H]([C@@H](C)O)C(=O)N[C@@H](C)C(=O)N[C@@H]([C@@H](C)O)C(=O)N1)[C@@H](C)O)C(=O)N[C@@H](CC(C)C)C(=O)N[C@@H](CO)C(=O)N[C@@H](CO)C(=O)N[C@H](C(=O)N[C@@H](CC(N)=O)C(=O)N[C@H](C(=O)NCC(=O)N[C@@H](CO)C(=O)N[C@@H](CC(N)=O)C(=O)N[C@H](C(=O)N[C@@H](Cc1ccc(O)cc1)C(N)=O)[C@@H](C)O)C(C)C)[C@@H](C)O", "note": "[Arg-1] (H-KCNTATCATQRLARRRRHSSNNFGAILSSTNVGSNTY-NH2; disulfide 2-7 (inferred); N-terminus assumed)", "values": [{"measurement": "aggregate morphology by TEM", "setting": "[1]", "value": "formed much fewer fibrils; also recorded: formed a larger proportion of short fibrils than WT-amylin; also recorded: fewer fibrils with shorter lengths"}, {"measurement": "TEM of WT-amylin fibrils formed with inhibitor", "setting": "WT-amylin [2]", "value": "somewhat fewer fibrils and a greater amount of short fibrils"}, {"measurement": "increase of lag time compared to WT-amylin", "setting": "[3]; 20 μM peptide, 150 mM NaCl", "value": "about 2 fold"}, {"measurement": "reduction of elongation rate compared to WT-amylin", "setting": "[3]; 20 μM peptide, 150 mM NaCl", "value": "about 30%"}, {"measurement": "fibrillization detected (ThT)", "setting": "[3]; [6]", "value": "detect fibrillization"}, {"measurement": "fibrillization lag time", "setting": "[3]; 20 μM peptide, 150 mM NaCl, 20 mM sodium phosphate pH 7.4, 10 μM ThT, 2% DMSO, 25°C, no agitation, fluorescence ex 440/em 490 nm, triplicate", "value": 210, "unit": "min"}, {"measurement": "fibril elongation rate", "setting": "[3]; 20 μM peptide, 150 mM NaCl, 20 mM sodium phosphate pH 7.4, 10 μM ThT, 2% DMSO, 25°C, no agitation, triplicate", "value": 0.0068, "unit": "min⁻¹"}, {"measurement": "effect on WT-amylin fibrillization lag time", "setting": "WT-amylin [4]; 20 μM WT-amylin, 150 mM NaCl", "value": "no effects on the lag times within experimental uncertainty"}, {"measurement": "effect on steady-state fluorescence plateau", "setting": "WT-amylin [4]; 20 μM WT-amylin, 150 mM NaCl", "value": "reduction in the steady-state fluorescence plateaus; also recorded: only observed to decrease with the Arg-1 analog"}, {"measurement": "reduction of WT-amylin fibril elongation rate", "setting": "WT-amylin [4]; 20 μM WT-amylin, 150 mM NaCl", "value": "8–10 fold"}, {"measurement": "reduction of WT-amylin elongation rate", "setting": "WT-amylin [4]; 20 μM WT-amylin, 150 mM NaCl", "value": 7, "unit": "fold"}, {"measurement": "reduction of WT-amylin elongation rate", "setting": "WT-amylin [4]; 20 μM WT-amylin, absence of salt", "value": 4, "unit": "fold"}, {"measurement": "effect on WT-amylin lag times, elongation rates and fluorescence plateaus", "setting": "WT-amylin [4]; 80 μM WT-amylin, increasing Arg-1, 150 mM NaCl", "value": "increases in lag times with increasing Arg-1 concentration as well as decreases in elongation rates and steady-state fluorescence plateaus"}, {"measurement": "protection against WT-amylin cytotoxicity (overall)", "setting": "[5]; MIN6 cells, 80 μM WT-amylin, up to 2 : 1 inhibitor : WT-amylin", "value": "protects against WT-amylin cytotoxicity"}, {"measurement": "pIC50", "setting": "[5]; mouse, 24 h", "value": "~4.30"}]}
{"compound": "CC(C)C[C@H](NC(=O)[C@H](CCCNC(=N)N)NC(=O)[C@H](CCC(N)=O)NC(=O)[C@@H](NC(=O)[C@H](C)NC(=O)[C@@H]1CSSC[C@H](NC(=O)[C@@H](N)CCCCN)C(=O)N[C@@H](CC(N)=O)C(=O)N[C@@H]([C@@H](C)O)C(=O)N[C@@H](C)C(=O)N[C@@H]([C@@H](C)O)C(=O)N1)[C@@H](C)O)C(=O)N[C@@H](C)C(=O)N[C@@H](CC(N)=O)C(=O)N[C@@H](Cc1ccccc1)C(=O)N[C@@H](CC(C)C)C(=O)N[C@H](C(=O)N[C@@H](Cc1c[nH]cn1)C(=O)N[C@@H](CO)C(=O)N[C@@H](CO)C(=O)N[C@@H](CC(N)=O)C(=O)N[C@@H](CC(N)=O)C(=O)N[C@@H](CCCNC(=N)N)C(=O)N[C@@H](CCCNC(=N)N)C(=O)N[C@@H](CCCNC(=N)N)C(=O)N[C@@H](CCCNC(=N)N)C(=O)N[C@@H](CC(C)C)C(=O)N[C@@H](CO)C(=O)N[C@@H](CO)C(=O)N[C@H](C(=O)N[C@@H](CC(N)=O)C(=O)N[C@H](C(=O)NCC(=O)N[C@@H](CO)C(=O)N[C@@H](CC(N)=O)C(=O)N[C@H](C(=O)N[C@@H](Cc1ccc(O)cc1)C(N)=O)[C@@H](C)O)C(C)C)[C@@H](C)O)C(C)C", "note": "[Arg-2] (H-KCNTATCATQRLANFLVHSSNNRRRRLSSTNVGSNTY-NH2; disulfide 2-7 (inferred); N-terminus assumed)", "values": [{"measurement": "aggregate morphology by TEM", "setting": "[1]", "value": "only detected amorphous aggregates with nonfibrillar morphologies; also recorded: few if any fibrils"}, {"measurement": "TEM of WT-amylin fibrils formed with inhibitor", "setting": "WT-amylin [2]", "value": "somewhat fewer fibrils and a greater amount of short fibrils"}, {"measurement": "fibrillization detected (ThT)", "setting": "[3]; [6]", "value": "failed to fibrillize"}, {"measurement": "fibrillization detected (ThT)", "setting": "[3]; 400 μM peptide, pH 7.4, 2% DMSO, 25°C", "value": "still failed to fibrillize"}, {"measurement": "fibrillization of peptide on its own (overall)", "setting": "[3]; ThT, all conditions tested", "value": "did not form fibrils under any of the conditions tested; also recorded: did not form fibrils even at high concentrations of the peptide and salt"}, {"measurement": "effect on WT-amylin fibrillization lag time", "setting": "WT-amylin [4]; 20 μM WT-amylin, 150 mM NaCl", "value": "increased with increasing concentrations"}, {"measurement": "reduction of WT-amylin fibril elongation rate", "setting": "WT-amylin [4]; 20 μM WT-amylin, 150 mM NaCl", "value": "8–10 fold"}, {"measurement": "salt dependence of inhibition of elongation rate", "setting": "WT-amylin [4]; 20 μM WT-amylin, varying NaCl", "value": "A very similar effect is seen; also recorded: more effective at physiological salt concentration or higher than in the absence of salt"}, {"measurement": "protection against WT-amylin cytotoxicity", "setting": "[5]; 160 μM analog : 80 μM WT-amylin (2 : 1)", "value": "protects against cytotoxicity"}]}
